Data taken from US9850276B2, “Bidentate-binding modulators of LRRK2 and JNK kinases” (THE SCRIPPS RESEARCH INSTITUTE, priority 2013, dated 2017).
Values joined by “and” are separate entries in the source; they are usually repeats but may differ in a detail not shown here. Equal values may be shown once. Read-outs that look alike come from different tables or passages of the source. Where a SMILES comes first, the peptide text is derived from it. The star is where a group is joined. X1 = O=C(NCCCCN*)c1ccc(-c2n[nH]c3ccccc23)cc1; X2 = O=C(NCCCN*)c1ccc(-c2n[nH]c3ccccc23)cc1

Legend:
[1] = biological target: T1, JNK3 39-422 (Homo sapiens, UniProt P53779); assay: JIP FP displacement assay (TAMRA-JIP-11-mer peptide, fluorescence polarization); assay type: binding; details: 2-3 determinations; * n = 2-4
T1 construct: with JNK3 39-422 and measuring fluorescence polarization (FP) changes
T1 sequence (P53779 39-422 isoform P53779-2): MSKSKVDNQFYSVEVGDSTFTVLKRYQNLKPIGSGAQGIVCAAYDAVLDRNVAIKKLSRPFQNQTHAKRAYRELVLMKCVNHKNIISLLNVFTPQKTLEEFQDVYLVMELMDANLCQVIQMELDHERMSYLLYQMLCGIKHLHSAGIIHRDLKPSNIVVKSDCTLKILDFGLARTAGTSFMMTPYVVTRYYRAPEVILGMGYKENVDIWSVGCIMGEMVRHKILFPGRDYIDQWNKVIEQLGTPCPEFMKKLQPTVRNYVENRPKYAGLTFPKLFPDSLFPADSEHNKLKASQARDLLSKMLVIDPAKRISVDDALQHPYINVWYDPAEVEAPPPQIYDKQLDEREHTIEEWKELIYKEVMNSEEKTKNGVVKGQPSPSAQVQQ
Description: The biochemical assay for JIP displacement is centered on utilizing a TAMRA-JIP-11-mer peptide (TAMRA-RPKRPTTLNLF) with JNK3 39-422 and measuring fluorescence polarization (FP) changes in the presence and absence of small molecule inhibitors. This assay has been established in 96-well and 384-well format in our labs. Unlabeled JIP-peptide (RPKRPTTLNLF, SEQ ID:1) and compound 2 were used as positive controls.

[2] = biological target: JNK1 (Homo sapiens, UniProt P45983); assay: JNK1 enzyme assay; assay type: biochemical; details: 2-3 determinations; SP600125 from 10 measurements
Sequence of JNK1 (P45983 whole entry): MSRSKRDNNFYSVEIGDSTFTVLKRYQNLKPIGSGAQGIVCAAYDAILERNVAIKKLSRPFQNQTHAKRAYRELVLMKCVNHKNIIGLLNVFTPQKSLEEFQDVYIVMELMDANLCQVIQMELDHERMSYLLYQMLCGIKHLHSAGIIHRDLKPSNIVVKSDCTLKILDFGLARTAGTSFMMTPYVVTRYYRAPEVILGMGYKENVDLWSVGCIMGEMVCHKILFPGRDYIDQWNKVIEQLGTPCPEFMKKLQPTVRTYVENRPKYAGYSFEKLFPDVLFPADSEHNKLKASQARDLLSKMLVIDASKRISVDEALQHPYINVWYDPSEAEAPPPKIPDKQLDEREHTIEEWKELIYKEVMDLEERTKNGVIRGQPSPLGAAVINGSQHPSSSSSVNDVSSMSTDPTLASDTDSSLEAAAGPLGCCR

[3] = biological target: JNK3 (Homo sapiens, UniProt P53779); assay: JNK3 enzyme activity assay; assay type: biochemical; details: 2-3 determinations; SP600125 from 10 measurements; * n = 2-4
Sequence of JNK3 (P53779 1-422 isoform P53779-2): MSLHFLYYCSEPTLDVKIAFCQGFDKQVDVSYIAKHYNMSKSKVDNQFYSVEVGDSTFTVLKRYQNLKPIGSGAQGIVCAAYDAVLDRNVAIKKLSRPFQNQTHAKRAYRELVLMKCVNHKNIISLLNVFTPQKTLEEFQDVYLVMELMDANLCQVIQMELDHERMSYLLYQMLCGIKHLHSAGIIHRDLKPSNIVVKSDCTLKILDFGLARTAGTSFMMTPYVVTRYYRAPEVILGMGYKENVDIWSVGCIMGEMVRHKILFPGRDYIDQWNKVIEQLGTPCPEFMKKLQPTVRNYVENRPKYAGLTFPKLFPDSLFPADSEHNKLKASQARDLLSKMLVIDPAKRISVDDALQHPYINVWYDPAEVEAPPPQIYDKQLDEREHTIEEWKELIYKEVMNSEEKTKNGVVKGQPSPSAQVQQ

[4] = tested on: c-jun phosphorylation in H9C2 cardiomyocyte cells; assay: In-cell Western detection of c-Jun phosphorylation; assay type: cell-based; details: for IC50: n = 4, read-out: Cell-based p-c-Jun inhibition (IC50)
Experimental: The IC50 was calculated to be 2.8±0.5 μM. Standard error is given.
(§1) To analyze the cell activity of compound 6 and its analogs an In-cell Western detection assay was set up where phosphorylation of c-Jun was monitored. […] This finding was corroborated by Western blot analysis in H9C2 and N2a cells (FIG. 7). Considering the reasonably high biochemical kinase selectivity (coupled with its low μM cell potency), compound 6 is believed to be a good in vitro probe molecule for studying the biology and the signal pathways related to JNK/LRRK2 (and mutant LRRK2s).
Table 2, above, presents the inhibition of c-Jun phosphorylation in H9c2 cells for six JNK bidentate inhibitors, compounds 5, 6, 9, 10, 12, and 13.

[5] = tested on: 96 kinases; assay: Ambit binding screen; details: 10 μM
Experimental: To augment this we screened an additional 96 kinases at 10 μM in the Ambit binding screen to get a broader sense for the selectivity of this compound. […] Since minimal SAR optimizations have been made on this probe molecule it is believed that high selectivity for this class of inhibitors could easily be achieved by exploiting the bidentate binding character of this class.

[6] = biological target: LRRK2-G2019S (Homo sapiens, UniProt Q5S007, G2019S); assay: LRRK2-G2019S enzyme assay (titration); assay type: biochemical
Sequence of LRRK2-G2019S (Q5S007 whole entry G2019S): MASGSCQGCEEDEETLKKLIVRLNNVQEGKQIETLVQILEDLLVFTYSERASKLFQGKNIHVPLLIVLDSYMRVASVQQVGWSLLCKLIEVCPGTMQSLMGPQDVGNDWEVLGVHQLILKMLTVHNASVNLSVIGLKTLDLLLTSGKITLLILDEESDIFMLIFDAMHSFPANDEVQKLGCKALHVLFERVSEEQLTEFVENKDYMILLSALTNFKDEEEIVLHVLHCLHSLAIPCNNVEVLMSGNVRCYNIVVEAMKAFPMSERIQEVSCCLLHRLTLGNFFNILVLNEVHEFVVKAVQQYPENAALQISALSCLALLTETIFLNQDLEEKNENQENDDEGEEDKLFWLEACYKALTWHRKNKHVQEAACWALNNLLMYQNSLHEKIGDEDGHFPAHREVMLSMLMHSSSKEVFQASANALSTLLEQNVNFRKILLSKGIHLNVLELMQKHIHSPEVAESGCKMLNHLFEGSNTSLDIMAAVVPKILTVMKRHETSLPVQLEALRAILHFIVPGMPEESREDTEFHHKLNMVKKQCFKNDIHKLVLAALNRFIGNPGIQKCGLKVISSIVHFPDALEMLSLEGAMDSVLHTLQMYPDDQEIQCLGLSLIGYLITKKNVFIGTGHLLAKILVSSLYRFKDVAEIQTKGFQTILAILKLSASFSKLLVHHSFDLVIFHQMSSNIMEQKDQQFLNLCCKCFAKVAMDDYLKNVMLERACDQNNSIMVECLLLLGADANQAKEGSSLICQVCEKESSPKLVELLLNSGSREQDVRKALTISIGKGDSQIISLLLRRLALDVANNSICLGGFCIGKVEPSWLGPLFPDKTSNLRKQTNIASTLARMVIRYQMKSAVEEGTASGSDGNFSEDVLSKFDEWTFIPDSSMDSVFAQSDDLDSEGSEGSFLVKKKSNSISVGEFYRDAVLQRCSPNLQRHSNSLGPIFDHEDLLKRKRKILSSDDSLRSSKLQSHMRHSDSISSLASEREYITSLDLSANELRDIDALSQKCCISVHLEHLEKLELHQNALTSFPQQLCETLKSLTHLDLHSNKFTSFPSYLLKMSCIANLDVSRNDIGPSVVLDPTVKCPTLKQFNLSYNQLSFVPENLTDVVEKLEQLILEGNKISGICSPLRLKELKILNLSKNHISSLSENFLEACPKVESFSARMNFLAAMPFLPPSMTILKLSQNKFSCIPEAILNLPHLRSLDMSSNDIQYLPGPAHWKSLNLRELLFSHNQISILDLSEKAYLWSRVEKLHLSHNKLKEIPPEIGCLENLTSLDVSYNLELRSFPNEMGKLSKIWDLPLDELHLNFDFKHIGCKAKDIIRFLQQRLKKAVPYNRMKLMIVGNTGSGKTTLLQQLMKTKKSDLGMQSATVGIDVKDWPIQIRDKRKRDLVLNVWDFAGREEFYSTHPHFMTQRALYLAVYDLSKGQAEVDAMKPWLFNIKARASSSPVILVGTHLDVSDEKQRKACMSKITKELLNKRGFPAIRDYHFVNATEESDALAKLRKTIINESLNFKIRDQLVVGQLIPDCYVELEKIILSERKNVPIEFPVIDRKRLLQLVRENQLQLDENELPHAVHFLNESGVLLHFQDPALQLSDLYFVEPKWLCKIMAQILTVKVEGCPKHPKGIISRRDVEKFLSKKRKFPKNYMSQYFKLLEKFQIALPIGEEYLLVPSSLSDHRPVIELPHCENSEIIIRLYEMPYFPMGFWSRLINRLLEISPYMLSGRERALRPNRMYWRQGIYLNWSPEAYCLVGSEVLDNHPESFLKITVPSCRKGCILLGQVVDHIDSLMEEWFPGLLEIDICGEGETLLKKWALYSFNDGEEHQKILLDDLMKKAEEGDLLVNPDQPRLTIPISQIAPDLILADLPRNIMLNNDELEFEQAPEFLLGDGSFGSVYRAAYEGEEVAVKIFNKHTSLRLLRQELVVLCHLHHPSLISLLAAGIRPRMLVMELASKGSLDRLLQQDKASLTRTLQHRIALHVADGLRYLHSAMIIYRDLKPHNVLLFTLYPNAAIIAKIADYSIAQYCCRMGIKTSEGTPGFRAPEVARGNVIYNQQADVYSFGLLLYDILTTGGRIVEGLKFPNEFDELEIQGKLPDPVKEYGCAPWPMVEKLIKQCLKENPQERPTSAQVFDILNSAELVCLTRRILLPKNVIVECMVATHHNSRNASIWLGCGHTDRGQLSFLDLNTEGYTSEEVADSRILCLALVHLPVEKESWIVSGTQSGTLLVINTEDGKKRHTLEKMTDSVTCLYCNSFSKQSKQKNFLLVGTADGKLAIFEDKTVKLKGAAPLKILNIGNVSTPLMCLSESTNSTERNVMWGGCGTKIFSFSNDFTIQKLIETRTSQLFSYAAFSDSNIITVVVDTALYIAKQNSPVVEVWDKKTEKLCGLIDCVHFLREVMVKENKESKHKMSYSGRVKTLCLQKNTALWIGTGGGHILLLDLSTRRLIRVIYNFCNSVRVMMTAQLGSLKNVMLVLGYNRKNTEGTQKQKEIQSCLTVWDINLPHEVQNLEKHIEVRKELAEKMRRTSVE
Description: (§2) Strong inhibition of LRRK2 by compound 6 was also found.

[7] = biological target: JNK3α1 (Homo sapiens, UniProt P53779); assay: ATP competitive binding / mechanism of inhibition studies; assay type: biochemical; details: eight concentrations of compound; p<0.05
Sequence of JNK3α1 (P53779 1-422 isoform P53779-2): as the sequence (P53779 1-422 isoform P53779-2) above
Description: (A) Non-linear least squares fitting of the data using an equation for competitive inhibition at eight concentrations of compound 6. (B) Double reciprocal plots and linear regression of the data shown in A.
The detection method in the JNK3 enzyme assay allows for the detection of a compound that inhibits by a variety of mechanisms including: substrate-site binding, allosteric site binding, and ATP-competitive binding. […] However, if the inhibition of kinase activity by 6 was only through substrate site binding, its IC50 value in JNK3 activity assay should be similar to that in JIP displacement assay. […] One possible interaction besides JIP site binding was ATP hinge binding because the head indazole moiety is a well-known hinge binder.

[8] = tested on: JNKs; assay: Enzyme inhibition profiling, panel of 21 kinases; assay type: biochemical; details: 10 μM inhibitor concentration
[9] = tested on: SHSY5Y cells transfected with LRRK2:G2019S; assay: LRRK2:G2019S-induced ROS generation (Mitosox fluorescence); assay type: cell-based, human; details: 1 μM or 10 μM compound; p<0.05
Description: (§3) FIGS. 5A, 5B, and 5C, depict the results of assays to determine the protection of LRRK2:G2019S-induced mitochondrial dysfunction and cell death by compound 6. Significance between LRRK2:WT and LRRK2:G2019S are indicated by a single asterisk (p<0.05) (*), while differences between cells expressing LRRK2:G2019S and compound 6 treated cells expressing LRRK2:G2019S are indicated by a double asterisk (p<0.05) (**). Error bars denote standard deviation.
(§4) We next tested if compound 6 was potent in cell-based functional assays that measured reactive oxygen species (ROS) generation, mitochondrial membrane potential (MMP), and cell viability. We had previously shown that JNK inhibition had significant effects on all of these mitochondrial functional parameters in HeLa cells. FIG. 5 presents the effects that compound 6 had on all of these measures in the human dopaminergic SHSY5Y cell line. […] Finally, LRRK2:G2019S-induced cell loss was measured showing ˜50% less viable cells (FIG. 5C). In the presence of 10 μM compound 6, cell viability returned to >95% (p<0.05).

[10] = tested on: SHSY5Y cells transfected with LRRK2:G2019S; assay: LRRK2:G2019S-induced decrease in mitochondrial membrane potential; assay type: cell-based, human; details: 10 μM compound
Description: as §3, §4

[11] = tested on: c-jun phosphorylation in H9C2 and N2a cells; assay: Western blot analysis of c-jun phosphorylation; assay type: cell-based
Description: as §1

[12] = biological target: CLK1 (Homo sapiens, UniProt P49759); assay: Enzyme inhibition profiling, panel of 21 kinases; assay type: biochemical
Sequence of CLK1 (P49759 whole entry): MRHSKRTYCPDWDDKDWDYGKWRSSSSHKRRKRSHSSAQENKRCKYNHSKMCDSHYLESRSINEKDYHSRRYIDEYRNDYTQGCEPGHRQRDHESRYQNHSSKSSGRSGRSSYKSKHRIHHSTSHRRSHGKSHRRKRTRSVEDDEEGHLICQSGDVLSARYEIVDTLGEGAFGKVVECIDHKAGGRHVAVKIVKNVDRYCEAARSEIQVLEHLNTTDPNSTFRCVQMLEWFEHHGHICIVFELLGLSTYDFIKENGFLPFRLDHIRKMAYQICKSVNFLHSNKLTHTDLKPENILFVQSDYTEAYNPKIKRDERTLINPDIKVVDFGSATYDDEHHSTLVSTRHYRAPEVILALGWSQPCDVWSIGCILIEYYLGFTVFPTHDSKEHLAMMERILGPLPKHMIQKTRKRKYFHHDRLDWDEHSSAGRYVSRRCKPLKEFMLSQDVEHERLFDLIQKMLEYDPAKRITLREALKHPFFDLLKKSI

[13] = biological target: wild-type LRRK2 (Homo sapiens, UniProt Q5S007); assay: LRRK2 enzyme assay (titration); assay type: biochemical
Sequence of wild-type LRRK2 (Q5S007 whole entry): as the sequence (Q5S007 whole entry G2019S) above, with S2019G counted along it
Description: as §2

[14] = biological target: LRRK2 (Homo sapiens, UniProt Q5S007); assay: Enzyme inhibition profiling, panel of 21 kinases; assay type: biochemical; details: 10 μM inhibitor concentration
Sequence of LRRK2 (Q5S007 whole entry): as the sequence (Q5S007 whole entry G2019S) above, with S2019G counted along it

[15] = tested on: SHSY5Y cells transfected with LRRK2:G2019S; assay: LRRK2:G2019S-induced cell loss (cell viability); assay type: cell-based; details: Homo sapiens, SH-SY5Y; 10 μM compound; p<0.05
Description: as §3, §4

[16] = tested on: infarct size in rat hearts; assay: I/R MI rat model, 30 minutes ischemia and 24 hours reperfusion; assay type: in vivo; details: 40 mg/kg 3-aminobenzamide; p=0.048
Experimental: The in vivo efficacy of SR-3306 in anesthetized rats after 30 minutes ischemia and 24 hours reperfusion was evaluated.

[17] = Rattus norvegicus, H9c2, H9c2 cells

Structure (SMILES)	IC50 [1]	IC50 [2] [nM]	IC50 [3]	IC50 [4, 17] [nM]	further results
CC(=O)N[C@@H](CC(C)C)C(=O)N[C@@H](CC(N)=O)C(=O)N[C@@H](CC(C)C)C(=O)NCC(=O)NCCCCNC(=O)c1ccc(-c2n[nH]c3ccccc23)cc1 [Compound 3, (S)—N1-((S)-1-((2-((4-(4-(1H-indazol-3-yl)benzamido)butyl)amino)-2-oxoethyl)amino)-4-methyl-1-oxopentan-2-yl)-2-((S)-2-acetamido-4-methylpentanamido)succinamide] (Ac-LNLG-X1)	620 nM	318 ± 11.9	157 ± 162 nM	–	–
CC(=O)N[C@@H](CC(C)C)C(=O)N[C@@H](CC(N)=O)C(=O)N[C@@H](CC(C)C)C(=O)NCC(=O)NCC(=O)NCCCNC(=O)c1ccc(-c2n[nH]c3ccccc23)cc1 [Compound 1] (Ac-LNLGG-X2)	760 nM	–	37.8 ± 11.8 nM	–	–
NC(=O)c1cccc(N)c1 [3-aminobenzamide]	–	–	–	–	infarct size (IS) [16]: 26±1.5 % of AAR
CC(C)CN(CC(=O)NCCCCCCNC(=O)c1ccc(-c2n[nH]c3ccccc23)cc1)C(=O)CNC(=O)c1ccc2c(c1)OCCO2 [Compound 4, N-(2-((2-((6-(4-(1H-indazol-3-yl)benzamido)hexyl)amino)-2-oxoethyl)(isobutyl)amino)-2-oxoethyl)-2,3-dihydrobenzo[b][1,4]dioxine-6-carboxamide]	907 nM	685 ± 121	147 ± 51.6 nM	–	–
CC(C)C[C@H](NC(=O)[C@H](CC(N)=O)NC(=O)[C@@H](N)CC(C)C)C(=O)NCC(=O)NCC(=O)NCCCNC(=O)c1ccc(-c2n[nH]c3ccccc23)cc1 [Compound 2] (H-LNLGG-X2)	624 nM	–	136 ± 35.9 nM	–	–
CC(C)CN(CC(=O)NCCCCCCNC(=O)c1ccc(-c2n[nH]c3ccccc23)cc1)C(=O)CNC(=O)C1COc2ccccc2O1 (centres unmarked) [Compound 5, N-(2-((2-((6-(4-(1H-indazol-3-yl)benzamido)hexyl)amino)-2-oxoethyl)(isobutyl)amino)-2-oxoethyl)-2,3-dihydrobenzo[b][1,4]dioxine-2-carboxamide]	363 nM	164 ± 21.7	63.4 ± 10.4 nM	37400 ± 22300	–

Continued, in another order:

IC50 [1]	IC50 [2] [nM]	IC50 [3]	Structure (SMILES)	IC50 [4, 17] [nM]	further results
–	–	3150 nM	COc1ccc2c(c1)CC(C(=O)NCC(=O)N(CC(=O)NCCCCCCNC(=O)c1ccc3[nH]ncc3c1)CC(C)C)CO2 (centres unmarked) [Compound 8, N-(6-(2-(N-isobutyl-2-(6-methoxychroman-3-carboxamido)acetamido)acetamido)hexyl)-1H-indazole-5-carboxamide]	–	–
520 ± 170 nM	–	184 ± 38 nM	CC(C)CN(CC(=O)NCCCCNC(=O)c1ccc(-c2n[nH]c3ccccc23)cc1)C(=O)CNC(=O)c1cccc(Cl)c1 [Compound 12]	19800 ± 7800	–
336 nM and ~336 nM	109 ± 6.1	12 nM and 11.6 nM	COc1ccc2c(c1)CC(C(=O)NCC(=O)N(CC(=O)NCCCCCCNC(=O)c1ccc(-c3n[nH]c4ccccc34)cc1)CC(C)C)CO2 (centres unmarked) [Compound 6, N-(2-((2-((6-(4-(1H-indazol-3-yl)benzamido)hexyl)amino)-2-oxoethyl)(isobutyl)amino)-2-oxoethyl)-6-methoxychroman-3-carboxamide]	2800 ± 500	number of the 96 kinases with greater than 90% binding [5]: six; share of kinases inhibited [5]: ~5%; IC50 [6]: 99 nM and ~100 nM; mechanism of inhibition versus ATP [7]: competitive inhibitor of ATP; inhibition of JNKs [8]: ~100%; ROS levels [9]: reduced the ROS levels in a statistically significant manner; protection against decrease in MMP [10]: returned MMP dissipation to untreated levels; c-jun phosphorylation by Western blot [11]: inhibition of the c-jun phorphorylation; inhibition at 10 µM ([12]; 10 μM inhibitor concentration): 50%; IC50 ([12]; inferred from 50% inhibition at 10 μM): ~10000 nM; IC50 ([13]; read-out: wild-type LRRK2 IC50): 118 nM and ~100 nM; concentration from which c-Jun phosphorylation began to be inhibited significantly ([4]; H9C2 cells): ~100 nM; inhibition at 10 µM [14]: 94%; viability at 10 µM [15]: > 95%
363 ± 272 nM	–	65 nM	CC(C)CN(CC(=O)NCCCCNC(=O)c1ccc(-c2n[nH]c3ccccc23)cc1)C(=O)c1ccc2c(c1)OCCO2 [Compound 10]	~1000	IC50 ([13]; LRRK2 form not stated, only hit in profiling against 18 kinases at 10 μM, read-out: LRRK2 IC50): 80 nM; IC50 ([4]; H9c2 cells): 1400 ± 340 nM
1050 nM	154 ± 37.1	127 ± 30.3 nM	COc1ccc2c(c1)CC(C(=O)N[C@@H](C)C(=O)N(CC(=O)NCCCCCCNC(=O)c1ccc(-c3n[nH]c4ccccc34)cc1)CC(C)C)CO2 (stereo partly drawn) [Compound 7, N—((S)-1-((2-((6-(4-(1H-indazol-3-yl)benzamido)hexyl)amino)-2-oxoethyl)(isobutyl)amino)-1-oxopropan-2-yl)-6-methoxychroman-3-carboxamide]	–	–
1730 ± 635 nM	–	374 ± 227 nM	CC(C)CN(CC(=O)NCCCCNC(=O)c1ccc(-c2n[nH]c3ccccc23)cc1)CC(C)C [Compound 13]	9600 ± 3000	–
781 ± 7 nM	–	86 ± 37 nM	CC(C)CN(CCCCCCNC(=O)c1ccc(-c2n[nH]c3ccccc23)cc1)C(=O)c1ccc2c(c1)OCCO2 [Compound 11]	–	–
300 ± 187 nM	–	246 ± 227 nM	COc1ccc2c(c1)CC(C(=O)N(CC(=O)NCCCCNC(=O)c1ccc(-c3n[nH]c4ccccc34)cc1)CC(C)C)CO2 (centres unmarked) [Compound 9]	80400 ± 41400	–
